Literature values, collected in article PMC10769797 (The Oncologist, 2023).

Tests used:
POLR2A expression = settings: cited from earlier work
[1] = test system: patients with advanced solid tumors; settings: phase I study; cited from earlier work

CC1(C)CC[C@H](Nc2ncc(C(F)(F)F)c(-c3c[nH]c4c(P(C)(C)=O)c(C#N)ccc34)n2)CN1 [SY-5609]
POLR2A expression change compared with baseline (POLR2A expression; CDK7-target occupancy up to 100%): 4-5 fold
POLR2A expression change in PBMCs (POLR2A expression; at 75% CDK7-target occupancy): approximately 2.5 fold
DLTs [1]: cytopenia, gastrointestinal toxicity, and hypotension
Most frequent TEAEs [1]: gastrointestinal toxicity, fatigue, thrombocytopenia, and anemia
